Consider three compounds from US20260297542A1, “HERBICIDE RESISTANT PLANTS” (SYNGENTA CROP PROTECTION AG, priority 2023, published 2026).

What all share (experiment): E. coli hemG growth inhibition by herbicide, AtPPO1 variant
Holding throughout (type): cell-based
Common to all, as to details: read-out: percentage growth inhibition

One experiment addresses T1, AtPPO1 A176L (Arabidopsis thaliana, UniProt P55826, A176L).
T1 construct: expressed in transfected cells; host or cells: E. coli BL21(DE3) hemG (hemG replaced by CmR), pET24a plasmid
T1 sequence (P55826 35-537 A176L): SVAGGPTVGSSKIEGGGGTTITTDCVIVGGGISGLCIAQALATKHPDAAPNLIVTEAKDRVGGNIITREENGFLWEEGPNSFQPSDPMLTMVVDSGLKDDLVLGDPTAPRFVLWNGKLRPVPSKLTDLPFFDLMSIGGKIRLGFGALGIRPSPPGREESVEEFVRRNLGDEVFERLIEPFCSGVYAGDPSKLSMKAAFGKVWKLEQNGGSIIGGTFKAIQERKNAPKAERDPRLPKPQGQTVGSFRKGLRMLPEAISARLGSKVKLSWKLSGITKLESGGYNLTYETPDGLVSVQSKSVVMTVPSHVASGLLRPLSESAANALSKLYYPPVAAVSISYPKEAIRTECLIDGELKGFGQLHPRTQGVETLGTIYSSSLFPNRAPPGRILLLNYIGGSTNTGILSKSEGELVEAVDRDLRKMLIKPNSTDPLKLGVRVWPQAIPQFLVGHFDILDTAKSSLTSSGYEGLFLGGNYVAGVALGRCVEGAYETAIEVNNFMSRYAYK
The essentials: (§1)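 AtPPO1 variants from a site-saturation library, codon-optimised and T7-driven in pET24a, were expressed in E. coli BL21(DE3) lacking hemG (hemG replaced by CmR). Growth in Terrific broth with 0.1 mM IPTG plus 6.25 ppm herbicide 0 or E, 0.78 ppm herbicide B, or DMSO was read as OD600 after 24 h at 37° C; inhibition was calculated against the DMSO culture.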

A further experiment addresses T2, AtPPO1 P413G (Arabidopsis thaliana, UniProt P55826, P413G).
T2 construct: expressed in transfected cells; host or cells: E. coli BL21(DE3) hemG (pET24a, T7 promoter)
T2 sequence (P55826 35-537 P413G): T1 sequence (P55826 35-537 A176L) with L142A, P379G
The essentials: as §1

In a further experiment the target is T3, AtPPO1 V218K (Arabidopsis thaliana, UniProt P55826, V218K).
T3 construct: expressed in transfected cells; host or cells: E. coli BL21(DE3) hemG (hemG replaced by CmR), pET24a plasmid
T3 sequence (P55826 35-537 V218K): T1 sequence (P55826 35-537 A176L) with L142A, V184K
The method, boiled down: as §1

Another experiment has as its target T4, AtPPO1 V511N (Arabidopsis thaliana, UniProt P55826, V511N).
T4 construct: expressed in transfected cells; host or cells: E. coli BL21(DE3) hemG, pET24a plasmid
T4 sequence (P55826 35-537 V511N): T1 sequence (P55826 35-537 A176L) with L142A, V477N
The method, boiled down: as §1

Where a chain is given by its changes, count along the chain named.

In the case of `C#CCN1C(=O)C(F)(F)Oc2cc(F)c(-n3c(=O)n(C)c(=S)n(C)c3=O)cc21` [Herbicide B, trifludimoxazin], the inhibition at 0.78 ppm at AtPPO1 A176L worked out at 35%; at AtPPO1 P413G it was 16%; on AtPPO1 V218K, 38%; on AtPPO1 V511N, 20%.

For the compound `CCOC(=O)[C@]1(C)CC(c2cc(-n3c(=O)n(C)c(=S)n(C)c3=O)c(F)cc2Cl)=NO1` [Herbicide D, ethyl (5S)-3-[2-chloro-5-(3,5-dimethyl-2,6-dioxo-4-thioxo-1,3,5-triazinan-1-yl)-4-fluoro-phenyl]-5-methyl-4H-isoxazole-5-carboxylate], the inhibition at 6.25 ppm at AtPPO1 A176L was 42%; at AtPPO1 P413G it was 32%; at AtPPO1 V218K, 31%; at AtPPO1 V511N, 22%.

In the case of `CC(C)N(C)S(=O)(=O)NC(=O)c1cc(-n2c(=O)cc(C(F)(F)F)n(C)c2=O)c(F)cc1Cl` [Herbicide E, saflufenacil], the inhibition at 6.25 ppm at AtPPO1 A176L is 61%; on AtPPO1 P413G, 59%; on AtPPO1 V218K, 50%; at AtPPO1 V511N, 48%.
